Where “and” joins values, the source holds several entries; their conditions need not be identical. Equal entries are not always repeated.
target: T1, Gag-Pol polyprotein [588-1027]/[588-1147] (Human immunodeficiency virus 1, UniProt P04585); assay: HIV-1 RT Assay; conditions: pH 7.9
T1 construct: 588-1027; 588-1147

Structure (SMILES)	IC50
CCC(CCCC=C(c1cc(Cl)c(OC)c(CO)c1)c1cc(Cl)c(OC)c(CO)c1)C1OCCO1 (stereo not drawn) [(3-chloro-5-{1-[3-chloro-5-(hydroxymethyl)-4-methoxyphenyl]-6-(1,3-dioxolan-2-yl)oct-1-en-1-yl}-2-methoxyphenyl)methanol]	3.2 µM and 31.6 µM
COC(=O)CC=C(c1cc(Cl)c(OC)c(C(=O)OC)c1)c1cc(Cl)c(OC)c(C(=O)OC)c1 [methyl 3-chloro-5-{1-[3-chloro-4-methoxy-5-(methoxycarbonyl)phenyl]-4-methoxy-4-oxobut-1-en-1-yl}-2-methoxybenzoate]	> 100 µM
COC(=O)CCC=C(c1cc(Cl)c(OC)c(C(=O)OC)c1)c1cc(Cl)c(OC)c(C(=O)OC)c1 [methyl 3-chloro-5-{1-[3-chloro-4-methoxy-5-(methoxycarbonyl)phenyl]-5-methoxy-5-oxopent-1-en-1-yl}-2-methoxybenzoate]	> 100 µM

Source: BindingDB's records for doi:10.1021/jm990343b (Purdue University, 1999)
